This passage reports IC50 results from BindingDB's records for doi:10.1016/j.bmcl.2013.06.023 (Northwest Agriculture & Forestry University, 2013).

Assay [1] addresses T1, G protein-activated inward rectifier potassium channel 1 (Homo sapiens, UniProt P48549).
T1 sequence (P48549 whole entry): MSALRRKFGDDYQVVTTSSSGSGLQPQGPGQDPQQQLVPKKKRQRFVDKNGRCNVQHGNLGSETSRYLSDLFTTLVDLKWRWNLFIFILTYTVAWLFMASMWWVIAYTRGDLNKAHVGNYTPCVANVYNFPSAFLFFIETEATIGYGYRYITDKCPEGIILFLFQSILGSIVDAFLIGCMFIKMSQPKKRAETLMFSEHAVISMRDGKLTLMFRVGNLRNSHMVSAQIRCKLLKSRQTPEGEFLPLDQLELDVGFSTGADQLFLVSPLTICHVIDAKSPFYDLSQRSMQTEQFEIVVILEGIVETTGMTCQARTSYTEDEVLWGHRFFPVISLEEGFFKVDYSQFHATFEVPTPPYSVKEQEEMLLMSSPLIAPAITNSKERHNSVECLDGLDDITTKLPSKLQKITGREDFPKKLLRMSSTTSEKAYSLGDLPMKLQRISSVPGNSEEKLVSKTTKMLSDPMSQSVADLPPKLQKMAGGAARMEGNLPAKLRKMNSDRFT
Description: Inhibition of GIRK1/2 (unknown origin).

The target in assay [2] is T2, G protein-activated inward rectifier potassium channel 4 (Homo sapiens, UniProt P48544).
T2 sequence (P48544 whole entry): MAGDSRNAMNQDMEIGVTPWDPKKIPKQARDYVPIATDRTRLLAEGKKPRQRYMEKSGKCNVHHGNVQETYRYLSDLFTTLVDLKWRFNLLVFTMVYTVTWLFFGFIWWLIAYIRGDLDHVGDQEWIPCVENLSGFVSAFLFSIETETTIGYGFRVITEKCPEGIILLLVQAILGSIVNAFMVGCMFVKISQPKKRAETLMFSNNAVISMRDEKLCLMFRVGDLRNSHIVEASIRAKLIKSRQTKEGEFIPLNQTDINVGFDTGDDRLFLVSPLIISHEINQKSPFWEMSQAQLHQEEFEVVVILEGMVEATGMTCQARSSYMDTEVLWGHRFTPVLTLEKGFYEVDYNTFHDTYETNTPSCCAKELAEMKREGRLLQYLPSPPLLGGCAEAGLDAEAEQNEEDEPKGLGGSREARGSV
Nature of the assay: Inhibition of GIRK1/4 (unknown origin).

As for `O=C(Nc1ccc(F)c(F)c1)Nc1cc(C(F)(F)F)nn1-c1ccccc1`, the IC50 in assay [1] and in assay [2] was 30 µM each time.

With `O=C(Nc1ccc(F)c(F)c1)Nc1cc(C2CCC2)nn1-c1ccccc1`, the IC50 in assay [1] and in assay [2] was 30 µM each time.

For the compound `O=C(Nc1ccc(F)c(F)c1)Nc1cc(-c2ccccc2)nn1-c1ccccc1`, the IC50 in assay [1] and in assay [2] was 30 µM throughout.

Usually IC50 stands for the concentration that inhibits the measured activity by half. Higher therefore signals weaker potency in that assay.
